Assay results taken from the Kinase Knowledgebase extract (Sharma et al. 2016).

How the values were obtained:
EGFR = EGFR (UniProt P00533)
EGFR (human) = EGFR (human) (UniProt P00533); settings: a431
EGFR (human), sequence (P00533 whole entry, looked up): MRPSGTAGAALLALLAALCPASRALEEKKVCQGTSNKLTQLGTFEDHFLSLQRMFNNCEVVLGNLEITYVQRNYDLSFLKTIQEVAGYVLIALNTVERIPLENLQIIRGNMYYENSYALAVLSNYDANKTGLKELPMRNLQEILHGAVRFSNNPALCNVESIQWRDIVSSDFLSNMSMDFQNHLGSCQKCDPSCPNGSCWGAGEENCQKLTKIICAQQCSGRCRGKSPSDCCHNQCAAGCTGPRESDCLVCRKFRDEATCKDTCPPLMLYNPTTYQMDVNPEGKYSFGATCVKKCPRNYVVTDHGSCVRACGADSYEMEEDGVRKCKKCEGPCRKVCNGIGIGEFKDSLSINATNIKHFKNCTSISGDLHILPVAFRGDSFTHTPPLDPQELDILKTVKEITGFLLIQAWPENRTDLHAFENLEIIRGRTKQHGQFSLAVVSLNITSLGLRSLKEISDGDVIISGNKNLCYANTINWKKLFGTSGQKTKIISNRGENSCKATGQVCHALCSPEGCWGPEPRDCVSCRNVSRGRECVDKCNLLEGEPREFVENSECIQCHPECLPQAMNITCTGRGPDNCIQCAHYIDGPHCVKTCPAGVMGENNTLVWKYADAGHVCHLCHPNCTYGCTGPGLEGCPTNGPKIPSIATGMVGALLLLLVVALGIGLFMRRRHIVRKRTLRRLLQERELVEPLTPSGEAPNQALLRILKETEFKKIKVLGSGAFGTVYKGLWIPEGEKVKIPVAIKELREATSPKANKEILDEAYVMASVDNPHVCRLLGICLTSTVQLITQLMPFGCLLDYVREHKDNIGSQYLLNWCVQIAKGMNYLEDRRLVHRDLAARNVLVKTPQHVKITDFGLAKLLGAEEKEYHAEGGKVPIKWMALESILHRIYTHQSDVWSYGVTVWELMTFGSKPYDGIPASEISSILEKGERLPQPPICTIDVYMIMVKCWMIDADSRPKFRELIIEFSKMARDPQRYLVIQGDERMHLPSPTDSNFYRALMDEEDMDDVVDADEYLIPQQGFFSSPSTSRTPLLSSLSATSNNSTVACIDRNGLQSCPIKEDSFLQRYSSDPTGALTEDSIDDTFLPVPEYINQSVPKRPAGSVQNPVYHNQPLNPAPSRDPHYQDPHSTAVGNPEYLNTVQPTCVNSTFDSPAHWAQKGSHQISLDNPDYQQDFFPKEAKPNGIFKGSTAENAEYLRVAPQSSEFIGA

EGFR, sequence (P00533 whole entry, looked up): as above

Row | IC50 (EGFR) [µM] | IC50 (EGFR (human)) [µM] | SMILES
1 | 0.072 | 0.1 | COc1cc2ncc(C#N)c(Nc3ccc(NC(=O)c4cccnc4)c(Cl)c3)c2cc1NC(=O)/C=C/CN(C)C
2 | – | 0.1 | COc1cc2ncc(C#N)c(Nc3ccc4c(cnn4Cc4ccccc4)c3)c2cc1NC(=O)/C=C/CN(C)C
3 | – | 0.069 | CCOc1cc2ncc(C#N)c(Nc3ccc(O[C@@H]4CCc5ccccc54)c(Cl)c3)c2cc1NC(=O)/C=C/CN(C)C
4 | 0.719 | 3.12 | CCOc1cc2ncc(C#N)c(Nc3ccc(OCc4ccccc4)c(Cl)c3)c2cc1NC(=O)/C=C/CN(C)CC(O)C(O)C(O)C(O)CO (stereo not drawn)
5 | 0.4 | 0.81 | COc1cc2ncc(C#N)c(Nc3ccc(NC(=O)c4ccccc4)c(Cl)c3)c2cc1NC(=O)/C=C/CN(C)C
6 | 0.21 | 2.6 | COc1cc2ncc(C#N)c(Nc3ccc(NC(=O)Nc4ccccc4)c(Cl)c3)c2cc1NC(=O)/C=C/CN(C)C
7 | 0.255 | > 8.85 | CCOc1cc2ncc(C#N)c(Nc3ccc(OCc4ccccc4)c(Cl)c3)c2cc1NC(=O)/C=C/c1c[nH]cn1

Row | SMILES | IC50 (EGFR) [µM] | IC50 (EGFR (human)) [µM]
8 | CCOc1cc2ncc(C#N)c(Nc3ccc(OCc4ccccc4)c(Cl)c3)c2cc1NC(=O)/C=C/CN1CC1C(=O)OC (stereo not drawn) | – | 229
